Assay results taken from EPA's ToxValDB 9.5.
Where “and” joins values, the source holds several entries; their conditions need not be identical. Equal entries are not always repeated. One block for each molecule: values may come before it.

Assays:
[1] = tested on: Rattus norvegicus; conditions: acute
[2] = tested on: Mus musculus; conditions: repeat dose other; oral
[3] = tested on: Mus musculus; conditions: uterotrophic, Active
[4] = tested on: Rattus norvegicus; conditions: for NOEL: Sprague-Dawley; for LEL: uterotrophic, Active
[5] = tested on: Oryctolagus sp.; conditions: subchronic; duration: 45 days; inhalation; Hemorrhagic alveoli and congested capillaries the lungs
[6] = tested on: Rattus norvegicus
[7] = tested on: Rattus norvegicus; conditions: for NOAEL: chronic, duration: 24 months, oral, diet, albino Sprague Dawley, gastrointestinal
[8] = tested on: Rattus norvegicus; conditions: subchronic, oral, diet, Fischer 344, Clinical Observation: Diarrhea + Body Weight Changes: decrease(>25000 ) + Hematology: Hct increase, RBC increase, Hgb increase + Blood …
[9] = tested on: Oryctolagus sp.; conditions: reproduction developmental; duration: 12 days; oral; gavage; M/F; New Zealand; gastrointestinal
[10] = tested on: Canidae; conditions: oral, diet, M/F, Dog Other
[11] = tested on: Canidae; conditions: oral, diet, Dog Other
[12] = tested on: Mus musculus; conditions: subchronic; duration: 6 weeks; oral; Liver: Hepatotoxicity
[13] = tested on: Cavia porcellus; conditions: acute; inhalation; Guinea Pig
[14] = tested on: Mus musculus; conditions: acute
[15] = duration: 7 days, injection, subcutaneous
[16] = reproduction developmental, oral, drinking water, M/F, neurodevelopmental effects
[17] = reproduction developmental, oral, M/F, increased incidence of renal tubular dilation in f3b offspring
[18] = duration: 36 days, injection, subcutaneous

Structure (SMILES): CCCCCCOC(=O)c1ccccc1C(=O)OCCCCCC [Dihexyl phthalate]
LD50 ([1]; oral): 38.9 mg/kg and 29.6 mg/kg
LOAEL [2]: 550 mg/kg-day
NOAEL [2]: 55 mg/kg-day

LEL ([3]; duration: 3 days, oral): 0.1 mg/day
LEL ([4]; duration: 14 days, injection, subcutaneous): 2 mg/day
LEL ([4]; duration: 14 days, oral): 0.1 mg/day
Structure (SMILES): C#C[C@]1(O)CC[C@H]2[C@@H]3CCC4=CC(=O)CC[C@@H]4[C@H]3CC[C@@]21C [Norethindrone]
NOEL ([4]; Hershberger, duration: 10 days, oral, gavage, active + negative + Negative + neither): 10 mg/kg-day

LEL [3, 15]: 3 mg/kg-day
Structure (SMILES): COC(=O)[C@H]1[C@H]2C[C@@H]3c4[nH]c5cc(OC)ccc5c4CCN3C[C@H]2C[C@@H](OC(=O)c2cc(OC)c(OC)c(OC)c2)[C@@H]1OC [Reserpine]

Structure (SMILES): [O][Cl+][O-] [Chlorine dioxide]
LOAEL [5]: 6.9 mg/m3
LOAEL [6, 16]: 6 mg/kg-day
NOAEL [6, 16]: 3 mg/kg-day
LOAEL ([6]; subchronic, duration: 60 days, inhalation, vascular congestion and peribronchial edema): 2.76 mg/m3
LOAEL ([7]; subchronic, duration: 2 months, inhalation, unknown, Wistar, respiratory): 2.76 mg/m3

Structure (SMILES): CCCCCCCCCc1ccc(O)cc1 [4-Nonylphenol]
LEL ([3]; duration: 0.17 days, injection, subcutaneous): 0.022 mg
LEL ([4]; duration: 1 days, injection, subcutaneous): 200 mg/kg-day and 600 mg/kg-day
LEL ([4]; duration: 3 days, injection, intraperitoneal): 100 mg/kg-day
LEL ([4]; duration: 5 days, oral): 100 mg/kg-day
LEL ([4]; duration: 7 days, oral): 120 mg/kg-day
LEL ([4]; duration: 11 days, oral): 150 mg/kg-day

Structure (SMILES): Clc1ccc(C(c2ccccc2Cl)C(Cl)(Cl)Cl)cc1 (stereo not given) [o,p'-DDT]
LEL ([3]; duration: 1 days, oral): 375 mg/kg-day and 300 mg/kg-day
LEL ([3]; duration: 3 days, oral): 30 mg/kg-day
LEL ([4]; duration: 0.25 days, injection, subcutaneous): 10 mg/day
LEL ([4]; duration: 1 days, oral): 300 mg/kg-day
LEL ([4]; duration: 2 days, injection, intraperitoneal): 4 mg
LEL ([4]; duration: 2 days, injection, subcutaneous): 4 mg
LEL ([4]; duration: 3 days, oral, diet): 250 ppm
LEL ([4]; duration: 7 days, injection, intraperitoneal): 10 mg/day
LEL [4, 15]: 50 mg/kg-day and 100 mg/kg-day
LEL ([4]; duration: 7 days, oral): 50 mg/kg-day
LEL ([4]; duration: 7 days, oral, diet): 500 ppm
LEL ([4]; duration: 8 days, oral, diet): 500 ppm
LEL ([4]; duration: 27 days, injection, intraperitoneal): 0.5 mg/day

Structure (SMILES): O=C(O)CNCP(=O)(O)O [Glyphosate]
NOEL ([8]; F): 213 mg/kg-day
NOEL ([8]; M/F): < 300 mg/kg-day
LEL [6, 17]: 30 mg/kg-day
NOEL [6, 17]: 10 mg/kg-day
NOAEL [9]: 100 mg/kg-day
NOAEL ([7]; F): 113 mg/kg-day
NOAEL ([7]; M/F): 113 mg/kg-day
NOEL ([4]; Hershberger, duration: 10 days, oral, gavage, inactive + Negative + Negative + neither + decrease in AST and liver at 1000 / decrease in bw 10% at 1000 / testosterone dose-dependent …): 300 mg/kg-day

LEL [3, 18]: 2 mg and 1 mg/day
LEL [4, 18]: 3 mg and 1 mg/day
Structure (SMILES): CC(=O)O[C@]1(C(C)=O)CC[C@H]2[C@@H]3C=C(Cl)C4=CC(=O)[C@@H]5C[C@@H]5[C@]4(C)[C@H]3CC[C@@]21C [Cyproterone acetate]
LOEL ([4]; Hershberger, duration: 10 days, oral, gavage, Wistar, active + Negative + Antiandrogenic + anti-androgenic): 0.4 mg/kg-day

Structure (SMILES): ClC1=C(Cl)[C@]2(Cl)[C@@H]3[C@@H](Cl)[C@H]4O[C@H]4[C@@H]3C1(Cl)C2(Cl)Cl [Heptachlor epoxide B]
LEL ([10]; chronic, duration: 60 weeks, increased liver-to-body weight ratio in both males and females): 0.0125 mg/kg-day
LOAEL ([11]; chronic, duration: 60 weeks, Liver: Increased relative weight): 0.0125 mg/kg-day

Structure (SMILES): ClC(Cl)=C(Cl)Cl [Tetrachloroethylene]
LOAEL [2]: 7 mg/kg-day
NOAEL [2]: 1.4 mg/kg-day
NOAEL [12]: 14 mg/kg-day

Structure (SMILES): Oc1c(Cl)cc(Cl)c(Cl)c1Cc1c(O)c(Cl)cc(Cl)c1Cl [Hexachlorophene]
LEL ([10]; subchronic, duration: 13 weeks, swollen salivary gland, status spongiosis in brain and optic nerve): 0.75 mg/kg-day
LOAEL ([11]; subchronic, duration: 13 weeks, Nervous system: Effects): 0.75 mg/kg-day

Structure (SMILES): N#CCCSCCC#N [3,3'-Thiodipropionitrile]
LC50 [13]: > 88.9 mg/m3
LC50 ([14]; inhalation): > 88.9 mg/m3
LD50 ([14]; oral, gavage, albino): 3750 mg/kg
LC50 ([1]; inhalation): > 88.9 mg/m3

Structure (SMILES): C=C1C[C@]23C[C@@]1(O)CC[C@H]2[C@@]12C=C[C@H](O)[C@@](C)(C(=O)O1)[C@H]2[C@@H]3C(=O)O [Gibberellic acid]
LEL ([3]; duration: 5 days, injection, subcutaneous): 0.0001 mg/day
